Source: patent US12171886B2, “Mussel adhesive protein-based photothermal agent and photothermal-responsive adhesive nanoparticles” (POSTECH RESEARCH AND BUSINESS DEVELOPMENT FOUNDATION, priority 2018, dated 2024)

Assay: Absorbance of nanoparticles in the near-infrared region (UV-vis spectrometer)
Type: physicochemical
Details: control solutions without DOPA-metal complex
Experimental: Absorbances in the near-infrared region of the FeMAP NPs and VMAP NPs prepared in Example 1-3 were analyzed through a UV-vis spectrometer, and the analysis results are shown in FIG. 4.

## [Cl][Fe]([Cl])[Cl] [FeCl3]
  absorbance, absorption spectrum 500 nm to 900 nm: almost no absorbance

## [Cl][V]([Cl])[Cl] [VCl3]
  absorbance, absorption spectrum 500 nm to 900 nm: almost no absorbance
